# Biological target: T1, PDE4B: The catalytic domain of human PDE4B from S152-S528 (Homo sapiens, UniProt Q07343)
# T1 construct: His6 (N); thrombin cleavage site (N); made in house; host or cells: E. coli
# Assay: PDE4 IC50 determination by Scintillation Proximity Assay, PDE4B
# Format: biochemical
# Conditions: Table 1B, Formula I compounds; read-out: IC50 PDE4B
# Procedure: (§1) IC50s were determined by Scintillation Proximity Assay (SPA). The principle of the assay is based on the fact that cAMP, the PDE4 substrate, binds weakly to Yittrium Silicate SPA beads, whereas AMP, the product of PDE4 hydrolysis binds strongly. Thus, the extent of PDE4 hydrolysis of a sample of [^3H]cAMP can be measured because only the
# (§2) [^3H]AMP produced by PDE4 hydrolysis will bind to the SPA beads and produce a scintillation signal.
# (§3) PDE4 enzymes used for IC50 assays were:
# (§4) Enzyme was stored in 50% glycerol at −20°.
# (§5) In addition to the compound dilutions, each assay plate contained control wells with 1 μl of DMSO (to define 0% enzyme inhibition) or 1 μl of 200 μM roflumilast (to define 100% enzyme inhibition). […] Next, 10 μl of PDE4 enzyme in assay buffer was added and the plates were shaken for 30 s. at 1000 rpm to start the cAMP hydrolysis reaction. The concentrations of enzyme used were: PDE4B, 80 ng/ml; PDE4D, 4 ng/ml; PDE4B2, 2.5 μl of 50% glycerol stock/ml; PDE4D5 0.083 μl of 50% glycerol stock/ml. Assay plates were covered and incubated for 30 min. at 30°. […] The assay plates were covered with clear plastic film, centrifuged for 1 min. at 1000 RPM to settle the SPA beads, and counted using a Wallac TriLux scintillation counter. IC50's were calculated from the raw assay data by non-linear regression curve fitting using the Assay Explorer software package from MDL.
# T1 sequence (Q07343 with tags, fused parts or gaps): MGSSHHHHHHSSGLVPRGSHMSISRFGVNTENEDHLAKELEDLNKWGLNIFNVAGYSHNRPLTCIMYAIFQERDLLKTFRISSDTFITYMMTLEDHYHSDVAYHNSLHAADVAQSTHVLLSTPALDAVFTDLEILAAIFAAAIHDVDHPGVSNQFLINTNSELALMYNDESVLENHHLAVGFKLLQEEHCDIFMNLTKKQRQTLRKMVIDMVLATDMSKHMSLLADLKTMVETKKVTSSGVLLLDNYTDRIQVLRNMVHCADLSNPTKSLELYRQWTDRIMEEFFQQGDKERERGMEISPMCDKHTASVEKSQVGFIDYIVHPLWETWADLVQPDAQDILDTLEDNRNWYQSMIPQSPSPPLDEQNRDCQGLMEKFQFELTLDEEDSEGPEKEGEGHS
row,Compound,IC50
1,COc1ccc(C(=O)c2sc(Nc3ccc(Oc4ccccc4)cc3)c(C#N)c2N)cc1 [Compound 1-174],< 10 µM
2,"N#Cc1c(Nc2ccccc2Cl)sc(C(=O)c2ccc(Oc3ccccc3)cc2)c1N [Compound 1-194, 4-Amino-2-(2-chloro-phenylamino)-5-(4-phenoxy-benzoyl)-thiophene-3-carbonitrile]",< 10 µM
3,"CCc1ccc(C(=O)c2sc3c(c2N)C(c2cccnc2)C(C(C)=O)=C(C)N3)cc1 (centres unmarked) [Compound 1-8, 1-[3-Amino-2-(4-ethyl-benzoyl)-6-methyl-4-pyridin-3-yl-4,7-dihydro-thieno[2,3-b]pyridin-5-yl]-ethanone]",< 10 µM
4,"3-Amino-2-(4-ethyl- phenylcarbamoyl)-6-oxo- 6,7-dihydro- thieno[2.3-b]pyridine- 5-carboxylic acid [Compound 1-6]",> 10 µM
5,"NC(=O)c1sc(Nc2ccccc2)c(-c2nc3ccccc3[nH]2)c1N [Compound 1-14, 3-Amino-4-(1H-benzoimidazol-2-yl)-5-phenylamino-thiophene-2-carboxylic acid amide]",< 10 µM
6,"CCNc1sc(C(=O)OC)c(N)c1C#N [Compound 1-13, 3-Amino-4-cyano-5-ethylamino-thiophene-2-carboxylic acid methyl ester]",< 10 µM
7,"Cc1cc(=O)[nH]c2sc(C(=O)c3ccc(Br)cc3)c(N)c12 [Compound 1-3, 3-Amino-2-(4-bromo-benzoyl)-4-methyl-7H-thieno[2,3-b]pyridin-6-one]",> 10 µM
8,"CC(=O)C1=C(C)Nc2sc(C(N)=O)c(N)c2C1c1ccco1 (centres unmarked) [Compound 1-7, 5-Acetyl-3-amino-4-furan-2-yl-6-methyl-4,7-dihydro-thieno[2,3-b]pyridine-2-carboxylic acid amide]",> 10 µM
9,"Cc1ccc(C2CC(=O)Nc3sc(C(N)=O)c(N)c32)cc1 (centres unmarked) [Compound 1-11, 3-Amino-6-oxo-4-p-tolyl-4,5,6,7-tetrahydro-thieno[2,3-b]pyridine-2-carboxylic acid amide]",> 10 µM

# Continued, values first:
row,IC50,Compound
1,< 10 µM,"COc1ccc(Nc2sc(C(=O)c3cc(OC)ccc3OC)c(N)c2C#N)cc1 [Compound 1-93, 4-Amino-5-(2,5-dimethoxy-benzoyl)-2-(4-methoxy-phenylamino)-thiophene-3-carbonitrile]"
2,< 10 µM,"N#Cc1c(NC2CCCC2)sc(C(=O)c2ccc(-c3ccccc3)cc2)c1N [Compound 1-188, 4-Amino-5-(biphenyl-4-carbonyl)-2-cyclopentylamino-thiophene-3-carbonitrile]"
3,< 10 µM,"CC(=O)C1=C(C)Nc2sc(C(N)=O)c(N)c2C1c1ccc(Cl)cc1 (centres unmarked) [Compound 1-5, 5-Acetyl-3-amino-4-(4-chloro-phenyl)-6-methyl-4,7-dihydro-thieno[2,3-b]pyridine-2-carboxylic acid amide]"
4,> 10 µM,"NC(=O)c1sc2[nH]c(=O)c(C(=O)O)cc2c1N [Compound 1-10, 3-Amino-2-carbamoyl-6-oxo-6,7-diliydro-thieno[2,3-b]pyridine-5-carboxylic acid]"
5,< 10 µM,"N#Cc1c(NC2CCCC2)sc(C(=O)c2cc(C(=O)N3CCOCC3)no2)c1N [Compound 1-175, 4-Amino-2-cyclopentylamino-5-[3-(morpholine-4-carbonyl)-isoxazole-5-carbonyl]-thiophene-3-carbonitrile]"
6,< 10 µM,"CC(=O)C1=C(C)Nc2sc(C(=O)c3cccc([N+](=O)[O-])c3)c(N)c2C1c1cccnc1 (centres unmarked) [Compound 1-9, 1-[3-Amino-6-methyl-2-(3-nitro-benzoyl)-4-pyridin-3-yl-4,7-dihydro-thieno[2,3-b]pyridin-5-yl]-ethanone]"

# Same assay, conditions: Table 3A, Formula III compounds; read-out: IC50 PDE4B
row,Compound,IC50
1,"O=S(=O)(Nc1cccc2cccnc12)c1cccc(Nc2ccncn2)c1 [Compound 3-61, 3-(Pyrimidin-4-ylamino)-N-quinolin-8-yl-benzenesulfonamide]",< 10 µM
2,"O=S(=O)(Nc1cc(Br)cc2cccnc12)c1ccccc1 [Compound 3-59, N-(6-Bromo-quinolin-8-yl)-benzenesulfonamide]",> 10 µM
3,"COc1ccc(Br)cc1S(=O)(=O)Nc1cccc2cccnc12 [Compound 3-60, 5-Bromo-2-methoxy-N-quinolin-8-yl-benzenesulfonamide]",> 10 µM
4,"COc1ccc(NS(=O)(=O)c2ccc(-c3ccnc(SC)n3)s2)c2ncccc12 [Compound 3-18, 5-(2-Methylsulfanyl-pyrimidin-4-yl)-thiophene-2-sulfonic acid (5-methoxy-quinolin-8-yl)-amide]",< 10 µM
5,"COc1cc(NS(=O)(=O)c2c(Cl)cccc2Cl)c2ncccc2c1 [Compound 3-50, 2,6-Dichloro-N-(6-methoxy-quinolin-8-yl)-benzenesulfonamide]",> 10 µM
6,"CSc1ncc(-c2ccc(S(=O)(=O)N(C)c3cccc4cccnc34)s2)cn1 [Compound 3-19, 5-(2-Methylsulfanyl-pyrimidin-5-yl)-thiophene-2-sulfonic acid methyl-quinolin-8-yl-amide]",< 10 µM
7,"CSc1nc(Nc2ccc(S(=O)(=O)Nc3cccc4cccnc34)cc2)c2ccccc2n1 [Compound 3-62, 4-(2-Methylsulfanyl-quinazolin-4-ylamino)-N-quinolin-8-yl-benzenesulfonamide]",< 10 µM
8,"O=S(=O)(Nc1cccc2cccnc12)c1ccc(Oc2ccccc2)nc1 [Compound 3-69, 6-Phenoxy-pyridine-3-sulfonic acid quinolin-8-ylamide]",> 10 µM
9,"O=C(c1ccncc1)c1ccc(S(=O)(=O)Nc2cccc3cccnc23)cc1 [Compound 3-64, 4-(Pyridine-4-carbonyl)-N-quinolin-8-yl-benzenesulfonamide]",< 10 µM
10,"COc1ccc(NS(=O)(=O)c2ccc(-c3cnco3)s2)c2ncccc12 [Compound 3-36, 5-Oxazol-5-yl-thiophene-2-sulfonic acid (5-methoxy-quinolin-8-yl)-amide]",< 10 µM

# Second part, the compound after the results:
row,IC50,Compound
1,< 10 µM,"O=S(=O)(Nc1ccc(Br)c2cccnc12)c1ccc(-c2cnco2)s1 [Compound 3-35, 5-Oxazol-5-yl-thiophene-2-sulfonic acid (5-bromo-quinolin-8-yl)-amide]"
2,< 10 µM,"CSc1nccc(-c2ccc(S(=O)(=O)Nc3ccc(Br)c4cccnc34)s2)n1 [Compound 3-17, 5-(2-Methylsulfanyl-pyrimidin-4-yl)-thiophene-2-sulfonic acid (5-bromo-quinolin-8-yl)-amide]"
3,< 10 µM,"CSc1nc(Nc2cccc(S(=O)(=O)Nc3cccc4cccnc34)c2)c2ccccc2n1 [Compound 3-63, 3-(2-Methylsulfanyl-quinazolin-4-ylamino)-N-quinolin-8-yl-benzenesulfonamide]"
4,< 10 µM,"COc1ccc(NS(=O)(=O)c2cccc(-c3ccnc(C)n3)c2)c2ncccc12 [Compound 3-68, N-(5-Methoxy-quinolin-8-yl)-3-(2-methyl-pyrimidin-4-yl)-benzenesulfonamide]"
5,< 10 µM,"O=S(=O)(Nc1cccc2cccnc12)c1ccc(N2CCOCC2)cc1 [Compound 3-65, 4-Morpholin-4-yl-N-quinolin-8-yl-benzenesulfonamide]"
6,> 10 µM,"Cc1nccc(-c2cccc(S(=O)(=O)Nc3ccc(Br)c4cccnc34)c2)n1 [Compound 3-67, N-(5-Bromo-quinolin-8-yl)-3-(2-methyl-pyrimidin-4-yl)-benzenesulfonamide]"

# Same assay, conditions: second part of Table 2B (2-23 to 2-103), column 3; column is PDE4B in first part; read-out: IC 50 vs. indicated assay h TNFα
row,IC50,Compound
1,< 10 µM,"Nc1nc(Nc2c(F)cccc2F)sc1C(=O)c1ccccc1 [Compound 2-44, [4-Amino-2-(2,6-difluoro-phenylamino)-thiazol-5-yl]-phenyl-methanone]"

# Biological target: T2, PDE4D (Homo sapiens, UniProt Q08499)
# T2 construct: PDE4D: The catalytic domain of human PDE4B from S3 16-V692; His6 (N); thrombin cleavage site (N); made in house; host or cells: E. coli
# T2 sequence (Q08499 380-756): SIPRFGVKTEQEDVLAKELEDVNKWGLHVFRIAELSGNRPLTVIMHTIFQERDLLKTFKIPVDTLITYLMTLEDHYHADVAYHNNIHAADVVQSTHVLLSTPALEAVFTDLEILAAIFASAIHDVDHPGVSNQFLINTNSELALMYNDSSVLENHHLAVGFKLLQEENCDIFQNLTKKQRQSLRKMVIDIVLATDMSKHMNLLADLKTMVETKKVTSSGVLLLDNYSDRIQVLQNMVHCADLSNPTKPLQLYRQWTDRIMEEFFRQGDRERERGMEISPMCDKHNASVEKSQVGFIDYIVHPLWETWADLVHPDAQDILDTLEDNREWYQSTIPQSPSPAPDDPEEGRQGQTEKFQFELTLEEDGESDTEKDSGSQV
# Assay: PDE4 IC50 determination by Scintillation Proximity Assay, PDE4D
# Format: biochemical
# Conditions: Table 1B, Formula I compounds; read-out: IC50 PDE4D
# Procedure: as §1, §2, §3, §4, §5
row,IC50,Compound
1,< 10 µM,"COc1ccc(Nc2sc(C(=O)c3cc(OC)ccc3OC)c(N)c2C#N)cc1 [Compound 1-93, 4-Amino-5-(2,5-dimethoxy-benzoyl)-2-(4-methoxy-phenylamino)-thiophene-3-carbonitrile]"
2,> 10 µM,"Cc1cc(=O)[nH]c2sc(C(=O)c3ccc(Cl)c(Cl)c3)c(N)c12 [Compound 1-27, 3-Amino-2-(3,4-dichloro-benzoyl)-4-methyl-7H-thioeno[2,3-b]pyridin-6-one]"

# Same assay, conditions: first part of Table 2B (2-1 to 2-22); read-out: IC 50 vs. indicated assay PDE4D
row,IC50,Compound
1,> 10 µM,"Nc1nc(Nc2ccc(Oc3ccccc3)cc2)sc1C(=O)c1cc(-c2ccccc2)no1 [Compound 2-8, [4-Amino-2-(4-phenoxy-phenylamino)-thiazol-5-yl]-(3-phenyl-isoxazol-5-yl)-methanone]"

# Same assay, conditions: second part of Table 2B (2-23 to 2-103), column 5; column is PDE4D in first part; read-out: IC 50 vs. indicated assay h TNFα
row,IC50,Compound
1,> 10 µM,"Nc1nc(Nc2ccc(Oc3ccccc3)cc2)sc1C(=O)c1ccc(Oc2ccccc2)cc1 [Compound 2-47, [4-Amino-2-(4-phenoxy-phenylamino)-thiazol-5-yl]-(4-phenoxy-phenyl)-methanone]"
2,> 10 µM,"COc1cccc(C(=O)c2sc(Nc3cccc(C#N)c3)nc2N)c1 [Compound 2-64, 3-[4-Amino-5-(3-methoxy-benzoyl)-thiazol-2-ylamino]-benzonitrile]"
3,> 10 µM,"Nc1nc(Nc2ccc(Oc3ccccc3)cc2)sc1C(=O)c1ccc(OC(F)F)cc1 [Compound 2-61, [4-Amino-2-(4-phenoxy-phenylamino)-thiazol-5-yl]-(4-difluoromethoxy-phenyl)-methanone]"
